In this assay the target is T1, human Kv3.1 channels (hKv3.1) (Homo sapiens, UniProt P48547).
T1 sequence (P48547 1-501 limits assumed): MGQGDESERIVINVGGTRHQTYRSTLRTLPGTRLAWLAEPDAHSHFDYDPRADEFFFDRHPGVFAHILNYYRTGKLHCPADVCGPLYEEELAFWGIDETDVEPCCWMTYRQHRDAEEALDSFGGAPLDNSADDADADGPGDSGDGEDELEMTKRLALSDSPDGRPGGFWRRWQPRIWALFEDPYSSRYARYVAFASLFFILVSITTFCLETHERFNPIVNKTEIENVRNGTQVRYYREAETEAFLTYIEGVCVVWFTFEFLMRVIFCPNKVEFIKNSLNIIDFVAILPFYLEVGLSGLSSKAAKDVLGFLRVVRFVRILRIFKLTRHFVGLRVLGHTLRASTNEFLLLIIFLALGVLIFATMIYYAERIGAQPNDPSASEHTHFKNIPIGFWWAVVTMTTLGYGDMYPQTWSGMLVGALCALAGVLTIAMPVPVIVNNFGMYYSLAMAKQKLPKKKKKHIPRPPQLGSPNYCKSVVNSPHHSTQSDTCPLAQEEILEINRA
Description: Measurement of Kv3 channel modulation: Kv3.1 assay (IonWorks Quattro whole-cell electrophysiology). It is filed as cell-based. The note with it: for Kv3.1 max R %: normalised to maximum effect of reference compound (50 microM). On the procedure:
The ability of the compounds of the invention to modulate the voltage-gated potassium channel subtypes Kv3.4/Kv3.3/Kv3.2/Kv3.1 may be determined using the following assay. Analogous methods may be used to investigate the ability of the compounds of the invention to modulate other channel subtypes.
Human embryonic kidney (HEK)-hKv3.1 cell line is generated by transfecting HEK-293 cells with an expression vector with human Kv3.1 (NM_004976.4). Cells are cultured with MEM supplemented with 10% Heat-Inactivated FBS, 2 mM L-glutamine, 1% Penicillin-Streptomycin, and 0.6 mg/ml of Geneticin (G418). HEK-hKv3.1b cells were amplified in T175 cm2 flask at 37° C. with 5% CO2, using MEM amplification medium, containing the G418 selection antibiotic (0.6 mg/ml). Cells were detached every 3-4 days, using DPBS to wash twice the flask, then TrypLE to dislodge the cells, and re-plated at a density of 2-4×10^6 cells/flask.
The day of the experiment, cells are removed from the incubator and the culture medium removed. Cells are washed with 5 ml of Dulbecco's PBS (DPBS) calcium and magnesium free and detached by the addition of 3 ml Versene (Invitrogen, Italy) followed by a brief incubation at 37° C. for 5 minutes. The flask is tapped to dislodge cells and 10 ml of DPBS containing calcium and magnesium is added to prepare a cell suspension. The cell suspension is then placed into a 15 ml centrifuge tube and centrifuged for 2 min at 1200 rpm. After centrifugation, the supernatant is removed and the cell pellet re-suspended in 4 ml of DPBS containing calcium and magnesium using a 5 ml pipette to break up the pellet. Cell suspension volume is then corrected to give a cell concentration for the assay of approximately 3 million cells per ml.
Experiments are conducted at r.t. using IonWorks Quattro™ planar array electrophysiology technology (Molecular Devices Corp.) with PatchPlate™ PPC. Stimulation protocols and data acquisition are carried out using a microcomputer (Dell Pentium 4). Planar electrode hole resistances (Rp) are determined by applying a 10 mV voltage step across each well. These measurements are performed before cell addition. After cell addition and seal formation, a seal test is performed by applying a voltage step from −80 mV to −70 mV for 160 ms. Following this, amphotericin-B solution is added to the intracellular face of the electrode to achieve intracellular access. Cells are held at −70 mV. Leak subtraction is conducted in all experiments by applying 50 ms hyperpolarizing (10 mV) prepulses to evoke leak currents followed by a 20 ms period at the holding potential before test pulses.
For hKv3.2 and hKv3.1, assays from the holding potential of −70 mV, a first test pulse at −15 mV was applied for 100 ms and after 100 ms at −70 mV a second pulse at +40 mV was applied for 50 ms. Cells were then maintained for 100 ms at −100 mV and another pulse from […] to +40 mV (duration 50 ms) was applied to clamp later the voltage at −40 mV during 200 ms
The intracellular solution contains the following (in mM): K-gluconate 100, KCl 54, MgCl2 3.2, HEPES 5, adjusted to pH 7.3 with KOH. Amphotericin-B solution is prepared as 50 mg/ml stock solution in DMSO and diluted to a final working concentration of 0.1 mg/ml in intracellular solution.
Compounds of use in the invention (or reference compounds such as N-cyclohexyl-N-[(7,8-dimethyl-2-oxo-1,2-dihydro-3-quinolinyl)methyl]-N′-phenylurea) are dissolved in dimethylsulfoxide (DMSO) at a stock concentration of 10 mM. […] Each dilution (1 μL) is transferred to another compound plate and external solution containing 0.05% pluronic acid (66 μL) is added. 3.5 μL from each plate containing a compound of the invention is added and incubated with the cells during the IonWorks Quattro™ experiment. The final assay dilution is 200 and the final compound concentrations are in the range 50 μM to 50 nM.

Where [1] appears, read: Table 2, Example compounds, rounded to one decimal place, some compounds with two data sets (n given in cell), read-out: Kv3.1 pEC50 (converted).
The mark [2] stands for this setting: Table 3, Reference Examples and corresponding Examples, rounded to one decimal place, read-out: Kv3.1 pEC50 (converted).
Where [3] appears, read: Table 1, Reference Examples, current at -15 mV step, normalised to 50 microM reference compound, read-out: Kv3.1 pEC50 (converted).

Several values for one entry are separate records, joined by “and”; a condition that tells them apart may be missing. Equal entries are not always repeated. Where two headings read alike, the source gives them in different places.

In the case of `Cc1cnc2c(c1)[nH]c(=O)n2-c1cnc(Oc2cccc3c2C2(CC2)CO3)cn1` [Example 38, 6-methyl-3-(5-spiro[2H-benzofuran-3,1′-cyclopropane]-4-yloxypyrazin-2-yl)-1H-imidazo[4,5-b]pyridin-2-one], the “Kv3.1 max R %” value (Table 2, Example compounds) came out at 122%. Also, the EC50 under setting [1] was 200 nM.

With `Cn1cc2[nH]c(=O)n(-c3ccc(Oc4cccc5c4C4(CC4)CO5)nc3)c2n1` [Example 18, 2-methyl-6-(6-spiro[2H-benzofuran-3,1′-cyclopropane]-4-yloxy-3-pyridyl)-4H-imidazo[4,5-c]pyrazol-5-one], the “Kv3.1 max R %” value (Table 2, Example compounds) worked out at 148%. Besides, the EC50 under setting [1] was 251 nM.

Turning to `COc1cccc(Oc2ccc(-n3c(=O)[nH]c4cnc(C)nc43)cn2)c1` [Example 28, 9-[6-(3-methoxyphenoxy)-3-pyridyl]-2-methyl-7H-purin-8-one], the “Kv3.1 max R %” value (Table 2, Example compounds) turned out to be 140%. In addition, the EC50 under setting [1] was 3980 nM.

Turning to `O=c1[nH]c2cccnc2n1-c1ccc(Oc2cccc(OC(F)(F)F)c2)nc1` [Example 7, 3-[6-[3-(trifluoromethoxy)phenoxy]-3-pyridyl]-1H-imidazo[4,5-b]pyridin-2-one], the “Kv3.1 max R %” value (Table 2, Example compounds) is 89% and 96%. Besides, the EC50 under setting [1] was 501 nM and 398 nM; the EC50 under setting [2] was 398 nM; the EC50 (Table 5, Example compounds, read-out: Kv3.1 pEC50 (converted)) was 398 nM.

In the case of `O=c1[nH]c2cnccc2n1-c1ccc(Oc2cccc(OC(F)(F)F)c2)nc1` [RE10, reference compound], under setting [2], the EC50 is 2510 nM.

With `N#Cc1ccc(Oc2ccc(-n3c(=O)[nH]c4cccnc43)cn2)cc1OC(F)(F)F` [Example 14, 4-[[5-(2-oxo-1H-imidazo[4,5-b]pyridin-3-yl)-2-pyridyl]oxy]-2-(trifluoromethoxy)benzonitrile], under “Table 2, Example compounds”, the “Kv3.1 max R %” value came out at 124%. In addition, the EC50 under setting [1] was 1000 nM.

For the compound `Cc1ccc(Oc2ncc(-n3c(=O)[nH]c4cccnc43)cn2)c2c1OCC2(C)C` [Example 39, 3-[2-[(3,3,7-trimethyl-2H-benzofuran-4-yl)oxy]pyrimidin-5-yl]-1H-imidazo[4,5-b]pyridin-2-one], the “Kv3.1 max R %” value (Table 2, Example compounds) was determined as 215%. Under setting [1], the EC50 is 1580 nM.

Consider `Cn1cc2[nH]c(=O)n(-c3ccc(Oc4cccc5c4C(C)(C)CO5)nc3)c2n1` [Example 20, 6-[6-[(3,3-dimethyl-2H-benzofuran-4-yl)oxy]-3-pyridyl]-2-methyl-4H-imidazo[4,5-c]pyrazol-5-one], for which the “Kv3.1 max R %” value (Table 2, Example compounds) was 145% and 155%. Further, under setting [1], the EC50 is 794 nM and 631 nM.

Consider `Cc1ccc(Oc2ccc(N3C(=O)NC4COCC43)cn2)c2c1OCC21CC1` (centres unmarked) [RE3, reference compound], for which the EC50 under setting [3] was greater than 50100 nM. In addition, the “Kv3.1 max R %” value (Table 1, Reference Examples) is 30%.

Consider `CC[C@@H]1CN(c2ccc(Oc3ccc(C)c4c3C3(CC3)CO4)nc2)C(=O)N1` [RE2, reference compound], for which the EC50 under setting [3] is 20000 nM. Further, for the setting “Table 1, Reference Examples”, the “Kv3.1 max R %” value worked out at 92%.

As for `Cc1ccc(Oc2ncc(N3C(=O)NC(C)(C)C3=O)cn2)c2c1OCC21CC1` [RE4, reference compound], the “Kv3.1 max R %” value (Table 1, Reference Examples) turned out to be 158%.

As to `O=c1[nH]c2cccnc2n1-c1ccc(Oc2cccc3c2C2(CC2)CO3)nc1` [Example 3, 3-(6-spiro[2H-benzofuran-3,1′-cyclopropane]-4-yloxy-3-pyridyl)-1H-imidazo[4,5-b]pyridin-2-one], the EC50 (Kv3.1 pEC50, Table 2, Example compounds, rounded to one decimal place, some compounds with two data sets (n given in cell)) was 100 nM. Besides, for the setting “Table 2, Example compounds”, the “Kv3.1 max R %” value turned out to be 197%.

Take `Cc1ccc(Oc2ccc(N3C(=O)NCC(C)(C)C3=O)cn2)c2c1OCC21CC1` [RE6, reference compound]: the EC50 under setting [3] was 25100 nM. Moreover, the “Kv3.1 max R %” value (Table 1, Reference Examples) is given as 111%.

Consider `Cc1ccc2[nH]c(=O)n(-c3cnc(Oc4cccc5c4C4(CC4)CO5)cn3)c2n1` [Example 37, 5-methyl-3-(5-spiro[2H-benzofuran-3,1′-cyclopropane]-4-yloxypyrazin-2-yl)-1H-imidazo[4,5-b]pyridin-2-one], for which, under “Table 2, Example compounds”, the “Kv3.1 max R %” value came to 124%. Further, the EC50 under setting [1] is 126 nM.

With `Cc1ccnc2c1[nH]c(=O)n2-c1ccc(Oc2cccc3c2C2(CC2)CO3)nc1` [Example 5, 7-methyl-3-(6-spiro[2H-benzofuran-3,1′-cyclopropane]-4-yloxy-3-pyridyl)-1H-imidazo[4,5-b]pyridin-2-one], the “Kv3.1 max R %” value (Table 2, Example compounds) was 132%. Further, the EC50 under setting [1] is 316 nM.

As to `Cc1ccc(Oc2ccc(-n3c(=O)[nH]c4c(C)ccnc43)cn2)c2c1OCC21CC1` [Example 2, 7-methyl-3-[6-(7-methylspiro[2H-benzofuran-3,1′-cyclopropane]-4-yl)oxy-3-pyridyl]-1H-imidazo[4,5-b]pyridin-2-one], for the setting “Table 2, Example compounds”, the “Kv3.1 max R %” value stood at 83%. For the same compound, the EC50 under setting [1] is 158 nM.

Take `Cc1ccc(Oc2ccc(-n3c(=O)[nH]c4cn(C)nc43)cn2)c2c1OCC21CC1` [Example 19, 2-methyl-6-[6-(7-methylspiro[2Hbenzofuran-3,1′-cyclopropane]-4-yl)oxy-3-pyridyl]-4H-imidazo[4,5-c]pyrazol-5-one]: the “Kv3.1 max R %” value (Table 2, Example compounds) stood at 99%. In addition, under setting [1], the EC50 is 316 nM.

With `Cc1ccc(Oc2ccc(N3C(=O)NCc4cccnc43)cn2)c2c1OCC21CC1` [RE11, reference compound], under setting [2], the EC50 was 2000 nM.

For the compound `Cc1ccc(Oc2ccc(-n3c(=O)[nH]c4ccncc43)cn2)c2c1OCC21CC1` [Example 35, 3-[6-(7-methylspiro[2H-benzofuran-3,1′-cyclopropane]-4-yl)oxy-3-pyridyl]-1H-imidazo[4,5-c]pyridin-2-one], where the note is “Table 2, Example compounds”, the “Kv3.1 max R %” value is listed as 225%. The EC50 under setting [1] was 1000 nM.

Consider `Cc1ncc2[nH]c(=O)n(-c3ccc(Oc4cccc5c4C(C)(C)CO5)nc3)c2n1` [Example 30, 9-[6-[(3,3-dimethyl-2H-benzofuran-4-yl)oxy]-3-pyridyl]-2-methyl-7H-purin-8-one], for which the “Kv3.1 max R %” value (Table 2, Example compounds) is listed as 123%. The EC50 under setting [1] is 126 nM.

In the case of `Cc1ccc(Oc2cnc(-n3c(=O)[nH]c4cccnc43)cn2)c2c1OCC21CC1` [Example 11, 3-[5-(7-methylspiro[2H-benzofuran-3,1′-cyclopropane]-4-yl)oxypyrazin-2-yl]-1H-imidazo[4,5-b]pyridin-2-one], the “Kv3.1 max R %” value (Table 2, Example compounds) turned out to be 205%. Also, the EC50 under setting [1] is 316 nM.

For the origin of these results see patent publication US20240327406A1, “POTASSIUM CHANNEL MODULATORS” (Autifony Therapeutics Limited, priority 2021, published 2024).
